From US20110269811A1, “INHIBITORS OF SEMICARBAZIDE-SENSITIVE AMINE OXIDASE (SSAO) AND VAP-1 MEDIATED ADHESION USEFUL FOR TREATMENT AND PREVENTION OF DISEASES” (priority 2006, published 2011)

Key:
rat lung SSAO = molecular target: T1, rat lung SSAO (Rattus norvegicus, UniProt O08590); assay: ED50 for rat lung SSAO after oral administration; type: in vivo, Sprague Dawley rats; details: lungs excised 1, 3, 6 or 24 h later, FIG. 11, read-out: ED50 for inhibition of rat lung SSAO activity
T1 construct: rat lung or human umbilical cord homogenates were prepared by chopping the freshly removed tissue; from tissue; host or cells: rat lung homogenate (1000 g supernatant)
Method: Groups of five Sprague Dawley rats were orally administered the indicated doses of compound I-1-Z. At 1, 3, 6 or 24 h later, the animals were sacrificed, lungs excised and SSAO activity in lung homogenates determined. Results are presented as percent inhibition of SSAO activity relative to animals that were administered PBS.

A1 (h) = molecular target: T2, A1 (h) (Homo sapiens, UniProt P30542); assay: Receptor binding screen, [^3H]DPCPX; details: 10 uM Concentration of Compound I-1-Z; read-out: Mean Value, percent inhibition of control specific binding: A1 (h)
T2 construct: expressed in transfected cells; host or cells: CHO cells

α2 (non-selective) = assay: Receptor binding screen, [^3H]RX 821002; parameters: species or system rat; details: 10 uM Concentration of Compound I-1-Z
Method: (§1) For Table 4 below, the specific ligand binding to the receptors is defined as the difference between the total binding and the nonspecific binding determined in the presence of an excess of unlabelled ligand. The results are expressed as a percent inhibition of control specific binding obtained in the presence of Compound I-1-Z. The IC50 values (concentration causing a half-maximal inhibition of control specific binding) and Hill coefficients (nH) were determined by non-linear regression analysis of the competition curves using Hill equation curve fitting. The inhibition constants (Ki) were calculated from the Cheng Prusoff equation (Ki=IC50/(1+(L/KD)), where L=concentration of radioligand in the assay, and KD=affinity of the radioligand for the receptor). In each experiment, the respective reference compound was tested concurrently with Compound I-1-Z in order to assess the assay suitability.

AT1 (h) = molecular target: T3, AT1 (h) (Homo sapiens, UniProt P30556); assay: Receptor binding screen, [^125I][Sar^1,Ile^8]-ATII; details: 10 uM Concentration of Compound I-1-Z; read-out: Mean Value, percent inhibition of control specific binding: AT1 (h)
T3 construct: expressed in transfected cells; host or cells: CHO cells

CB1 (h) = molecular target: T4, CB1 (h) (Homo sapiens, UniProt P21554); assay: Receptor binding screen, [^3H]CP 55940; details: 10 uM Concentration of Compound I-1-Z; read-out: Mean Value, percent inhibition of control specific binding: CB1 (h)
T4 construct: expressed in transfected cells; host or cells: CHO cells

D1 (h) = molecular target: T5, D1 (h) (Homo sapiens, UniProt P21728); assay: Receptor binding screen, [^3H]SCH 23390; details: 10 uM Concentration of Compound I-1-Z; read-out: Mean Value, percent inhibition of control specific binding: D1 (h)
T5 construct: expressed in transfected cells; host or cells: CHO cells

ETB (h) = molecular target: T6, ETB (h) (Homo sapiens, UniProt P24530); assay: Receptor binding screen, [^125I]endothelin-1; details: 10 uM Concentration of Compound I-1-Z; read-out: Mean Value, percent inhibition of control specific binding: ETB (h)
T6 construct: expressed in transfected cells; host or cells: CHO cells

GAL1 (h) = molecular target: T7, GAL1 (h) (Homo sapiens, UniProt P47211); assay: Receptor binding screen, [^125I]galanin; details: 10 uM Concentration of Compound I-1-Z; read-out: Mean Value, percent inhibition of control specific binding: GAL1 (h)
T7 construct: expressed in transfected cells; host or cells: HEK-293 cells

GAL2 (h) = molecular target: T8, GAL2 (h) (Homo sapiens, UniProt O43603); assay: Receptor binding screen, [^125I]galanin; details: 10 uM Concentration of Compound I-1-Z; read-out: Mean Value, percent inhibition of control specific binding: GAL2 (h)
T8 construct: expressed in transfected cells; host or cells: CHO cells

PDGF = assay: Receptor binding screen, [^125I]PDGF BB, Balb/c 3T3 cells; details: 10 uM Concentration of Compound I-1-Z
CCR1 (h) = molecular target: T9, CCR1 (h) (Homo sapiens, UniProt P32246); assay: Receptor binding screen, [^125I]MIP-1α; details: 10 uM Concentration of Compound I-1-Z; read-out: Mean Value, percent inhibition of control specific binding: CCR1 (h)
T9 construct: expressed in transfected cells; host or cells: HEK-293 cells

H1 (h) = molecular target: T10, H1 (h) (Homo sapiens, UniProt P35367); assay: Receptor binding screen, [^3H]pyrilamine; details: 10 uM Concentration of Compound I-1-Z; read-out: Mean Value, percent inhibition of control specific binding: H1 (h)
T10 construct: expressed in transfected cells; host or cells: HEK-293 cells

M1 (h) = molecular target: T11, M1 (h) (Homo sapiens, UniProt P11229); assay: Receptor binding screen, [^3H]pirenzepine; details: 10 uM Concentration of Compound I-1-Z; read-out: Mean Value, percent inhibition of control specific binding: M1 (h)
T11 construct: expressed in transfected cells; host or cells: CHO cells
Method: as §1

Y2 (h) = molecular target: T12, Y2 (h) (Homo sapiens, UniProt P49146); assay: Receptor binding screen, [^125I]peptide YY, KAN-TS cells; details: 10 uM Concentration of Compound I-1-Z; read-out: Mean Value, percent inhibition of control specific binding: Y2 (h)
T12 construct: KAN-TS cells; endogenous in cells; host or cells: KAN-TS cells

δ2 (h) (DOP) = molecular target: T13, δ2 (h) (DOP) (Homo sapiens, UniProt P41143); assay: Receptor binding screen, [^3H]DADLE; details: 10 uM Concentration of Compound I-1-Z; read-out: Mean Value, percent inhibition of control specific binding: δ2 (h) (DOP)
T13 construct: expressed in transfected cells; host or cells: CHO cells
Method: as §1

PCP = assay: Receptor binding screen, [^3H]TCP; parameters: species or system rat; details: 10 uM Concentration of Compound I-1-Z
5-HT1A (h) = molecular target: T14, 5-HT1A (h) (Homo sapiens, UniProt P08908); assay: Receptor binding screen, [^3H]8-OH-DPAT; details: 10 uM Concentration of Compound I-1-Z; read-out: Mean Value, percent inhibition of control specific binding: 5-HT1A (h)
T14 construct: expressed in transfected cells; host or cells: HEK-293 cells

5-HT2C (h) = molecular target: T15, 5-HT2C (h) (Homo sapiens, UniProt P28335); assay: Receptor binding screen, [^3H]mesulergine; details: 10 uM Concentration of Compound I-1-Z; read-out: Mean Value, percent inhibition of control specific binding: 5-HT2C (h)
T15 construct: expressed in transfected cells; host or cells: CHO cells

5-HT5A (h) = molecular target: T16, 5-HT5A (h) (Homo sapiens, UniProt P47898); assay: Receptor binding screen, [^3H]LSD; details: 10 uM Concentration of Compound I-1-Z; read-out: Mean Value, percent inhibition of control specific binding: 5-HT5A (h)
T16 construct: expressed in transfected cells; host or cells: CHO cells

5-HT6 (h) = molecular target: T17, 5-HT6 (h) (Homo sapiens, UniProt P50406); assay: Receptor binding screen, [^3H]LSD; details: 10 uM Concentration of Compound I-1-Z; read-out: Mean Value, percent inhibition of control specific binding: 5-HT6 (h)
T17 construct: expressed in transfected cells; host or cells: CHO cells

5-HT7 (h) = molecular target: T18, 5-HT7 (h) (Homo sapiens, UniProt P34969); assay: Receptor binding screen, [^3H]LSD; details: 10 uM Concentration of Compound I-1-Z; read-out: Mean Value, percent inhibition of control specific binding: 5-HT7 (h)
T18 construct: expressed in transfected cells; host or cells: CHO cells
T18 sequence (P34969 whole entry): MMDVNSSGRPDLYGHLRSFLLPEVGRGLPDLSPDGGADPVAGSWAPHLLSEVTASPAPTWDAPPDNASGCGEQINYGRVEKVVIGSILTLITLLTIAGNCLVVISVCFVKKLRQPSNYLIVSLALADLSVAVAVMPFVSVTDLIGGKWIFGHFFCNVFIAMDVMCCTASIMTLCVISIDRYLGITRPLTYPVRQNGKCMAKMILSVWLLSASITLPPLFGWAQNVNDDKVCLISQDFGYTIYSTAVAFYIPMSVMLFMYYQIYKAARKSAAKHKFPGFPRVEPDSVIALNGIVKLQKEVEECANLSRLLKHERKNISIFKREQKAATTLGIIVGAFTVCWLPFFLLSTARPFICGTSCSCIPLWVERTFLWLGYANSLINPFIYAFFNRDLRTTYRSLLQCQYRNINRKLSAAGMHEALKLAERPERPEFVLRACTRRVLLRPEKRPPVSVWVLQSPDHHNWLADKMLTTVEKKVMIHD

T11 sequence (P11229 whole entry): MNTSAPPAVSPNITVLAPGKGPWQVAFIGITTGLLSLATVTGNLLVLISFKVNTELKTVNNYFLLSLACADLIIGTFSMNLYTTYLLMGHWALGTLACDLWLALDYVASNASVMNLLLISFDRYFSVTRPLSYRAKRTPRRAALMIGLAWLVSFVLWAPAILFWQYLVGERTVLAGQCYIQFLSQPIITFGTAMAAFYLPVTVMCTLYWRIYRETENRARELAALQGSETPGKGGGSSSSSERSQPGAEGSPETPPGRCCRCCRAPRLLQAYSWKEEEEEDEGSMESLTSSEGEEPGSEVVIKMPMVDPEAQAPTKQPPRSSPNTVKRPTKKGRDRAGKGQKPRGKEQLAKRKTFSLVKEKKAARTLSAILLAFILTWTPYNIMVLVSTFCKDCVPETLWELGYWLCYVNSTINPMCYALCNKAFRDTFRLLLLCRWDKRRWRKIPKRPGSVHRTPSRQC
T14 sequence (P08908 whole entry): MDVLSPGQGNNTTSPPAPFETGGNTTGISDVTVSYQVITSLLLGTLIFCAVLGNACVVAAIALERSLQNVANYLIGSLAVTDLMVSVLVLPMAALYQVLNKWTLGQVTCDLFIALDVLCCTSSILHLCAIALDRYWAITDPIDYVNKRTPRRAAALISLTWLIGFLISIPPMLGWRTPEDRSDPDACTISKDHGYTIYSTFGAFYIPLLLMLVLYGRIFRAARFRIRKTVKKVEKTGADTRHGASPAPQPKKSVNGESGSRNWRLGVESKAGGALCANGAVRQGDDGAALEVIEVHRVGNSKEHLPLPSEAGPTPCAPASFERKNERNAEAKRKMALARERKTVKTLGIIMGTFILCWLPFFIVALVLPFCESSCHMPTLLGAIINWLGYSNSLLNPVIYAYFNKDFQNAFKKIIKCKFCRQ
T15 sequence (P28335 33-458): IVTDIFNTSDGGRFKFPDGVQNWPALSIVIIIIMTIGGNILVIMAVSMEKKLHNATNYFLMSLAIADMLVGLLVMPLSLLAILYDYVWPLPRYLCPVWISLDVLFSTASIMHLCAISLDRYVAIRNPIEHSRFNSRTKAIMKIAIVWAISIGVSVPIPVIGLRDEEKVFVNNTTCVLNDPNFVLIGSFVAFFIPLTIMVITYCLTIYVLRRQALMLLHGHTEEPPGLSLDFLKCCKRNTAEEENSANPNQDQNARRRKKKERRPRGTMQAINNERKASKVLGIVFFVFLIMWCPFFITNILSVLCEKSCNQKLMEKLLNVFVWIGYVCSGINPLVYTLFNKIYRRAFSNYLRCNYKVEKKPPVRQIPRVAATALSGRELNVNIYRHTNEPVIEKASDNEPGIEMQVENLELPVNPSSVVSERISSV
T10 sequence (P35367 whole entry): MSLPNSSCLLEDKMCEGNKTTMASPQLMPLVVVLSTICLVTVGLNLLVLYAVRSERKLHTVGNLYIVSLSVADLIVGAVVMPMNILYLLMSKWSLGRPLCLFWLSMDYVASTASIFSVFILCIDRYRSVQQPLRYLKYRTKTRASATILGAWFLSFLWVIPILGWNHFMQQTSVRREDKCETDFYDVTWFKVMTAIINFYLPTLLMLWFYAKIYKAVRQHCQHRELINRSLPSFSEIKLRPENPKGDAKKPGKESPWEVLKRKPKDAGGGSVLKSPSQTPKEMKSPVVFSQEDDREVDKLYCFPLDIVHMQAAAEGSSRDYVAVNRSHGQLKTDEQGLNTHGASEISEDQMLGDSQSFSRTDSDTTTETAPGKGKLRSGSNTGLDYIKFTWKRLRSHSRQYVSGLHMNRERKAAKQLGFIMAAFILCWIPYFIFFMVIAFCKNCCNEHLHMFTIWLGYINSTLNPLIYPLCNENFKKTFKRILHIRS
T5 sequence (P21728 whole entry): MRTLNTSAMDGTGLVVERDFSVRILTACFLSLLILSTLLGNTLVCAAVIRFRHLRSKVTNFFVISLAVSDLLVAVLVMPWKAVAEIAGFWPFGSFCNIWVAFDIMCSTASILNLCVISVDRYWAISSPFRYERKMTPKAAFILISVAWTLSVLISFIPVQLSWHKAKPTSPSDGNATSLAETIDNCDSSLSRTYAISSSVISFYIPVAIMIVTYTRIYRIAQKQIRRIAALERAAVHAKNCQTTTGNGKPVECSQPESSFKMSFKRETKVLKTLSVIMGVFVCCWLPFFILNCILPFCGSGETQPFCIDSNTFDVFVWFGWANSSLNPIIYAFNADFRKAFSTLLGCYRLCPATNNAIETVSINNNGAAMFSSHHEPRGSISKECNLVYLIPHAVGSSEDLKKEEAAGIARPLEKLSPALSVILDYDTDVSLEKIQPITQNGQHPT
T16 sequence (P47898 whole entry): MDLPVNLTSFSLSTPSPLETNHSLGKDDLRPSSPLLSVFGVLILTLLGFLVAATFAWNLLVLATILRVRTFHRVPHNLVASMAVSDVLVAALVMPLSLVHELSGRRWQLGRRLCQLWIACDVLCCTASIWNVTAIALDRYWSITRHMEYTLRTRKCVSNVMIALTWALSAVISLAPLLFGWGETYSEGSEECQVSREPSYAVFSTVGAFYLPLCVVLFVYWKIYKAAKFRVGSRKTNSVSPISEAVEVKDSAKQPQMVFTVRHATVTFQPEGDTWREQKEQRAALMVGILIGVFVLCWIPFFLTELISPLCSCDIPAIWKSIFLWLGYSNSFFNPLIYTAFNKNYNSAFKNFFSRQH
T6 sequence (P24530 27-442): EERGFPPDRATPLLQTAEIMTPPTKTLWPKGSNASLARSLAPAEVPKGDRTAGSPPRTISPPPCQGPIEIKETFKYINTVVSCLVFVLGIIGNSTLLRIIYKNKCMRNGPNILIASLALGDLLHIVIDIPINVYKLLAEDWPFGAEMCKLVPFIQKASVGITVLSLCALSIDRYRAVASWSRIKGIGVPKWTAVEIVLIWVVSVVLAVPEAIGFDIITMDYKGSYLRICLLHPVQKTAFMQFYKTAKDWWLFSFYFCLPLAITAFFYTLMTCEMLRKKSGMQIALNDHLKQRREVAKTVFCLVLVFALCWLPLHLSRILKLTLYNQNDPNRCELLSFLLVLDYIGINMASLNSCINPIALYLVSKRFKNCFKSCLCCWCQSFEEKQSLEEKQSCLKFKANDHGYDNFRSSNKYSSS
T8 sequence (O43603 whole entry): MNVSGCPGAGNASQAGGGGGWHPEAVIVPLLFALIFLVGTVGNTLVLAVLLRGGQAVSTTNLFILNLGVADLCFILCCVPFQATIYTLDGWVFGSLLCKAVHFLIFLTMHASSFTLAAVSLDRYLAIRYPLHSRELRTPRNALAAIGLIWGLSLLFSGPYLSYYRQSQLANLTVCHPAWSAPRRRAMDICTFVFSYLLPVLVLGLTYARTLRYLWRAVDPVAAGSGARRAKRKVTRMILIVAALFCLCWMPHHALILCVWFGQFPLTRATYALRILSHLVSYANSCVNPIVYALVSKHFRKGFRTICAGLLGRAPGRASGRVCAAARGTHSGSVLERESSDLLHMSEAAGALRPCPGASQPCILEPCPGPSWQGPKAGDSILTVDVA
T13 sequence (P41143 whole entry): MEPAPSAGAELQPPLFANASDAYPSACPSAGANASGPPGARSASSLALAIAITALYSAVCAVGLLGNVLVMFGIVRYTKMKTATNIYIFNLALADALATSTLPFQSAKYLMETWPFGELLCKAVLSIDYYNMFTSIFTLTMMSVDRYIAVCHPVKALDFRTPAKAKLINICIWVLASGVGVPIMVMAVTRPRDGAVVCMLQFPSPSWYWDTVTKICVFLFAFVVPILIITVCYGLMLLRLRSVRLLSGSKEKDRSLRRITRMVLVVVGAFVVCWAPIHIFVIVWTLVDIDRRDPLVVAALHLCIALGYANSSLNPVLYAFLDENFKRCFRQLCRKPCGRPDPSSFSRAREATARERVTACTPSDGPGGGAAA
T9 sequence (P32246 whole entry): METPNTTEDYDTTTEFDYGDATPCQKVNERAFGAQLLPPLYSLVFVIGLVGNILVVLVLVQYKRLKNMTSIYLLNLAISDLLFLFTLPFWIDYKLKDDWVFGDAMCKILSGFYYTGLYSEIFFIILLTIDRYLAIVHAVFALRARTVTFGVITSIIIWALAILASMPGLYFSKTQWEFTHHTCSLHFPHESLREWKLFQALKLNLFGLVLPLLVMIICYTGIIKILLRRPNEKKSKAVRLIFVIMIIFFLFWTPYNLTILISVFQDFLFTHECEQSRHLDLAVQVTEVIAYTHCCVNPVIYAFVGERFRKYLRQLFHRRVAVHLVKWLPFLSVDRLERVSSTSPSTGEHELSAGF
T2 sequence (P30542 whole entry): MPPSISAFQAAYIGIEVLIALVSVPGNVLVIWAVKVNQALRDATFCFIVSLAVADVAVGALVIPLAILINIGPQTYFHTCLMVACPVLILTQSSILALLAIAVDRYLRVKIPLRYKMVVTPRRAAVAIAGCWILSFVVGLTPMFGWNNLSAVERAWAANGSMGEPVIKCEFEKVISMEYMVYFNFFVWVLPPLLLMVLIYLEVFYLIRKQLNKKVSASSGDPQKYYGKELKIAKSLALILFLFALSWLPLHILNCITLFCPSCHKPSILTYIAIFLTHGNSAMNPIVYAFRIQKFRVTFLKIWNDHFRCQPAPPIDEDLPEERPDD

COc1ccc(C/C(=C/F)CN)cc1.Cl [Compound I-1-Z, (Z)-3-Fluoro-2-(4-methoxybenzyl)-allylamine hydrochloride]
ED50 (rat lung SSAO): 0.1 to 1 mg/kg
inhibition at 10 µM (A1 (h)): -3%
Mean Value, percent inhibition of control specific binding: α2 (non-selective) (α2 (non-selective)): 23%
inhibition at 10 µM (AT1 (h)): 10%
inhibition at 10 µM (CB1 (h)): 14%
inhibition at 10 µM (D1 (h)): -2%
inhibition at 10 µM (ETB (h)): -5%
inhibition at 10 µM (GAL1 (h)): 0%
inhibition at 10 µM (GAL2 (h)): 12%
Mean Value, percent inhibition of control specific binding: PDGF (PDGF): −14%
inhibition at 10 µM (CCR1 (h)): 3%
inhibition at 10 µM (H1 (h)): 3%
inhibition at 10 µM (M1 (h)): 28%
inhibition at 10 µM (Y2 (h)): 11%
inhibition at 10 µM (δ2 (h) (DOP)): 0%
Mean Value, percent inhibition of control specific binding: PCP (PCP): −12%
inhibition at 10 µM (5-HT1A (h)): 34%
inhibition at 10 µM (5-HT2C (h)): 21%
inhibition at 10 µM (5-HT5A (h)): -3%
inhibition at 10 µM (5-HT6 (h)): 1%
inhibition at 10 µM (5-HT7 (h)): 13%
